Test results: patent publication US6716858B1, “Methods for inhibiting diabetic complications” (Kansas University Medical Center, priority 1995, dated 2004)

Assays:
[1] = system: AGE formation during uninterrupted glycation of bovine serum albumin (BSA) by ribose; experiment: Uninterrupted ribose glycation assay, BSA; format: biochemical; conditions: 0.05 M ribose, 6 weeks, inhibitors 0.5-50 mM
Method: (§1) ELISA detection of AGE products. The general method of Engvall (1981, Methods Enzymol. 70:419-439) was used to perform the ELISA. Typically, glycated protein samples were diluted to approximately 1.5 ug/ml in 0.1 M sodium carbonate buffer of pH 9.5 to 9.7. The protein was coated overnight at room temperature onto 96-well polystyrene plates by pippetting 200 ul of the protein solution in each well (0.3 ug/well). After coating, the protein was washed from the wells with a saline solution containing 0.05% Tween-20. The wells were then blocked with 200 ul of 1% casein in carbonate buffer for 2 h at 37° C. followed by washing. Rabbit anti-AGE antibodies were diluted at a titer of about 1:350 in incubation buffer, and incubated for 1 h at 37° C., followed by washing. In order to minimize background readings, antibodies R479 used to detect glycated RNase were raised against glycated BSA, and antibodies R618 used to detect glycated BSA and glycated Hb were raised against glycated RNase. An alkaline phosphatase-conjugated antibody to rabbit IgG was then added as the secondary antibody at a titer of 1:2000 or 1:2500 (depending on lot) and incubated for 1 h at 37° C., followed by washing. The p-nitrophenylphosphate substrate solution was then added (200 ul/well) to the plates, with the absorbance of the released p-nitrophenolate being monitored at 410 nm with a Dynatech MR 4000 microplate reader.
(§2) Uninterrupted ribose glycation assays Bovine serum albumin, ribonuclease A, and human hemoglobin were incubated with ribose at 37° C. in 0.4 M sodium phosphate buffer of pH 7.5 containing 0.02% sodium azide. The protein (10 mg/ml or 1 mg/ml), 0.05 M ribose, and prospective inhibitors (at 0.5, 3, 15 and 50 mM) were introduced into the incubation mixture simultaneously. Solutions were kept in the dark in capped tubes. Aliquots were taken and immediately frozen until analyzed by ELISA at the conclusion of the reaction. The incubations were for 3 weeks (Hb) or 6 weeks (RNase, BSA). Glycation reactions were monitored for constant pH throughout the duration of the experiments.

[2] = system: post-Amadori AGE formation, RNase Amadori intermediate; experiment: Interrupted (post-Amadori) ribose glycation assay, RNase; format: biochemical, bovine; conditions: RNase, 24 h in 0.5 M ribose, then free ribose removed, 37° C.
Method: as §1
Glycation Modifications Modification with ribose or glucose was generally done at 37° C. in 0.4 M phosphate buffer of pH 7.5 containing 0.02% sodium azide. The high buffer concentration was always used with 0.5 M ribose modifications. The solutions were kept in capped tubes and opened only to remove timed aliquots that were immediately frozen for later carrying out the various analyses. “Interrupted glycation” experiments were carried out by first incubating protein with the ribose at 37° C. for 8 or 24 h, followed by immediate and extensive dialysis against frequent cold buffer changes at 4° C. The samples were then reincubated by quickly warming to 37° C. in the absence of external ribose. Aliquots were taken and frozen at various intervals for later analysis. Due to the low molecular weight of RNase, protein concentrations were remeasured after dialysis even when low molecular weight cut-off dialysis tubing was used. An alternative procedure was also devised (see below) in which interruption was achieved by simple 100-fold dilution from reaction mixtures containing 0.5 M ribose. Protein concentrations were estimated from UV spectra. The difference in molar extinction between the peak (278 nm) and trough (250 nm) was used for RNase concentration determinations in order to compensate for the general increase in UV absorbance that accompanies glycation. Time-dependent UV-difference spectral studies were carried out to characterize the glycation contributions of the UV spectrum. […]
Glycation was first carried out by incubating protein (10 mg/ml) with 0.5 M ribose at 37° C. in 0.4 M phosphate buffer at pH 7.5 containing 0.2% sodium azide for 24 h in the absence of inhibitors. Glycation was then interrupted to remove excess and reversibly bound (Schiff base) sugar by extensive dialysis against frequent cold buffer changes at 4° C.

[3] = system: AGE formation during uninterrupted glycation of ribonuclease A (RNase A) by ribose; experiment: Uninterrupted ribose glycation assay, RNase; format: biochemical, bovine; conditions: continuous 0.05 M ribose, 6 weeks, inhibitors 0.5-50 mM
Method: as §1, §2
The inhibitory effects of vitamin B1 and B6 derivatives on the kinetics of antigenic AGE formation were evaluated by polyclonal antibodies specific for AGEs. Initial inhibition studies were carried out on the glycation of bovine ribonuclease A (RNase) in the continuous presence of 0.05 M ribose, which is the concentration of ribose where the rate of AGE formation is near maximal.

[4] = system: AGE formation in bovine serum albumin (BSA); experiment: Uninterrupted glycation of BSA with glucose, anti-AGE ELISA; format: biochemical; conditions: BSA 10 mg/ml, 1.0 M glucose, pH 7.5, 37° C., 6 weeks; inhibitors 3, 15 and 50 mM
Method: as §2, with “Glycation with Glucose” for “ribose glycation assays”, “glucose” for “ribose”, “protein, glucose (at 1.0 M),” for “protein (10 mg/ml or 1 mg/ml), 0.05 M ribose,”, “BSA).” for “BSA). Glycation reactions were monitored for constant pH throughout the duration of the experiments.”
as §1
FIGS. 1 A-D are graphs which show the effect of vitamin B6 derivatives on post-Amadori AGE formation in bovine serum albumin glycated with glucose. BSA (10 mg/ml) was incubated with 1.0 M glucose in the presence and absence of the various indicated derivative in 0.4 M sodium phosphate buffer of pH 7.5 at 37° C. for 6 weeks. Aliquots were assayed by ELISA using R618 anti-AGE antibodies. Concentrations of the inhibitors were 3, 15 and 50 mM. Inhibitors used in FIGS. (1A) Pyridoxamine (PM); (1B) pyridoxal phosphate (PLP); (1C) pyridoxal (PL); (1D) pyridoxine (PN).
FIGS. 2A-D are graphs which show the effect of vitamin B1 derivatives and aminoguanidine (AG) on AGE formation in bovine serum albumin. BSA (10 mg/ml) was incubated with 1.0 M glucose in the presence and absence of the various indicated derivative in 0.4 M sodium phosphate buffer of pH 7.5 at 37° C. for 6 weeks. Aliquots were assayed by ELISA using R618 anti-AGE antibodies. Concentrations of the inhibitors were 3, 15 and 50 mM. Inhibitors used in FIGS. (2A) Thiamine pyrophosphate (TPP); (2B) thiamine monophosphate (TP); (2C) thiamine (T); (2D) aminoguanidine (AG).

[5] = system: post-Amadori AGE formation, BSA Amadori intermediate; experiment: Interrupted (post-Amadori) ribose glycation assay, BSA; format: biochemical, bovine; conditions: 24 h in 0.5 M ribose, then free ribose removed, 37° C.
Method: as §1
Glycation was first carried out by incubating protein (10 mg/ml) with 0.5 M ribose at 37° C. in 0.4 M phosphate buffer at pH 7.5 containing 0.2% sodium azide for 24 h in the absence of inhibitors. Glycation was then interrupted to remove excess and reversibly bound (Schiff base) sugar by extensive dialysis against frequent cold buffer changes at 4° C. The glycated intermediate samples containing maximal amount of Amadori product and little AGE (depending on protein) were then quickly warmed to 37° C. without re-addition of ribose. This initiated conversion of Amadori intermediates to AGE products in the absence or presence of various concentrations (typically 3, 15 and 50 mM) of prospective inhibitors. Aliquots were taken and frozen at various intervals for later analysis. The solutions were kept in capped tubes and opened only to remove timed aliquots that were immediately frozen for later carrying out the various analyses.

ribose-treated rats = experiment: Ribose rat model, intervention by compounds (Phase III); format: in vivo; conditions: 1 M ribose alone, 8 days
Method: Sixty rats were randomized into 9 different groups, including those exposed to 1 M ribose for 8 days in the presence and absence of aminoguanidine, pyridoxamine, and thiamine pyrophosphate as follows:
(ii) high dose (250 mg/kg body weight) of pyridoxamine (“compound-P”);
(iii) high dose (250 mg/kg body weight of thiamine pyrophosphate (“compound-T” or “TPP”); and
(iv) low dose (25 mg/kg body weight) of aminoguanidine (“AG”).
(i) only 1 M ribose-saline (2×9 cc daily IP for 8 days);
(ii) ribose plus low dose (“LP”) of pyridoxamine (25 mg/kg body weight injected as 0.5 ml with 9 cc ribose);
(iii) ribose plus high dose (“HP”) of pyridoxamine (250 mg/kg body weight injected as 0.5 ml with 9 cc ribose);
(iv) ribose plus high dose (“HT”) of thiamine pyrophosphate (250 mg/kg body weight injected as 0.5 ml with 9 cc ribose); and
(v) ribose plus low dose of amino guanidine (25 mg/kg body weight injected as 0.5 ml with 9 cc ribose).
Unlike Phase II, no ribose was administered in drinking water. Intervention compounds were pre-administered for one day prior to introducing them with ribose.

rats = experiment: Ribose administration to rats (Phase I and II), renal physiology; format: in vivo, rat
Method: Two groups of six rats each were given in one day either:
a. 300 mM ribose (two intraperitoneal infusions 6-8 hours apart, each 5% of body weight as ml); or
b. 50 mM ribose (one infusion)
Rats were then kept for 4 days with no further ribose administration, at which time they were sacrificed and the following physiological measurements were determined: (i) initial and final body weight; (ii) final stage kidney weight; (iii) initial and final tail-cuff blood pressure; (iv) creatinine clearance per 100 g body weight.
Groups of rats (3-6) were intraperitoneally given 0.3 M “low ribose dose” (LR) or 1.0 M “high ribose dose” (HR) by twice-daily injections for either (i) 1 day, (ii) a “short-term” (S) of 4 days, or (iii) a “long-term” (L) of 8 days. Additionally, these concentrations of ribose were included in drinking water.

[6] = Phase II: 0.3 M or 1.0 M ribose for 1, 4 or 8 days

SMILES | inhibition of overall kinetics of AGE formation from ribose [1] | inhibition of post-Amadori AGE formation [2] | inhibition of overall kinetics of AGE formation from ribose [3] | inhibition of antigenic AGE formation (ELISA) [4] | inhibition of post-Amadori AGE formation [5] | Albumin effusion rate (AER) (ribose-treated rats) | Albumin effusion rate (AER) (rats; [6]) | creatinine clearance (rats; [6]) | tail-cuff blood pressure (rats; Phase II: 0.3 M or 1.0 M ribose twice daily IP for 1, 4 or 8 days, also in drinking water) | tail-cuff blood pressure (rats; high ribose (2×300 mM) in one day, measured 4 days later, from 66±4) | creatinine clearance (rats; high ribose (2×300 mM), normal range expected about 1.0-1.2) [cc per 100 g body weight] | tail-cuff blood pressure (rats; low ribose (1×50 mM) in one day, measured 4 days later, from 66±4) | creatinine clearance (rats; low ribose (1×50 mM), normal range expected about 1.0-1.2) [cc per 100 g body weight]
Cc1ncc(COP(=O)(O)O)c(C=O)c1O [pyridoxal phosphate, pyridoxal-5′-phosphate] | mostly inhibited the rate of AGE formation, but not the final levels of AGE formed | showed significant inhibition at 15 mM | significantly inhibited the rate of AGE formation on RNase at concentrations of 50 mM and 15 mM | strongly suppressed antigenic AGE formation at even the lowest concentrations tested | – | – | – | – | – | – | – | – | –
Cc1ncc(C[n+]2csc(CCO)c2C)c(N)n1 [thiamine] | inhibited the final levels of AGEs formed, without greatly affecting the rate of AGE formation | showed no effect | little effect on the rate of AGE formation, but a substantial decrease in the final level of AGE formed in the presence of the highest concentration of inhibitor | not inhibitory | showed no effect | – | – | – | – | – | – | – | –
Cc1ncc(CO)c(CO)c1O [pyridoxine] | failed to inhibit AGE formation on BSA | – | moderately inhibited AGE formation on RNase | slightly effective at the highest concentrations tested | did not produce any inhibition | – | – | – | – | – | – | – | –
Cc1ncc(C[n+]2csc(CCOP(=O)(O)O)c2C)c(N)n1 [thiamine monophosphate] | – | showed some intermediate effect | little effect on the rate of AGE formation, but a substantial decrease in the final level of AGE formed in the presence of the highest concentration of inhibitor | not inhibitory | showed some intermediate effect | – | – | – | – | – | – | – | –
Cc1ncc(CO)c(C=O)c1O [pyridoxal] | mostly inhibited the rate of AGE formation, but not the final levels of AGE formed | did not show any significant inhibition at 15 mM | significantly inhibited the rate of AGE formation on RNase at concentrations of 50 mM and 15 mM | effective above 15 mM | – | – | – | – | – | – | – | – | –
O=C[C@H](O)[C@H](O)[C@H](O)CO [ribose] | – | diminished by increasing ribose concentrations | – | – | – | elevated | increased significantly in a ribose-dependent manner at 1-day and 4-day exposures | decreased in all groups in a ribose dose-dependent and time-dependent manner | increased in all groups of ribose-treated rats | 106±5 | 0.62±0.13 | 83±3 | 0.87±0.15
